Among the data in patent US4795751A, “5-substituted-6,8-difluoroquinolines useful as antibacterial agents” (Dainippon Pharmaceutical Co., Ltd., priority 1985, dated 1989) are MIC and ED50 values, retold here.

≈ marks a conversion by molar mass, not a printed value.

For assay [1], the system named is Campylobacter jejuni 19807. In words: Antibacterial activity against Campylobacter jejuni, twofold agar-dilution method. The format is cell-based. Conditions: strain 19807, blood-containing Mueller-Hinton agar, 48 h, 37° C. microaerobically, calculated for free base, read-out: minimum inhibitory concentration (MIC). The procedure:
(§1) The numbers in the table show minimum inhibitory concentrations (MIC) (μg/ml), calculated for free base. The minimum inhibitory concentration was determined by the twofold agar-dilution method using blood-containing Mueller-Hinton agar. One loopful of a culture of test organisms in Mueller-Hinton broth was inoculated onto 10-ml drug-containing agar layer in petri dishes. Bacterial growth was observed after 48-hour incubation at 37° C. microaerobically. The MIC was defined as the lowest drug concentration which prevented visible bacterial growth.

A further assay has as its system Campylobacter jejuni 20. The assay is described as above. The format is cell-based. The settings on record: strain 20, blood-containing Mueller-Hinton agar, 48 h, 37° C. microaerobically, calculated for free base, read-out: minimum inhibitory concentration (MIC). The procedure: as §1
Another assay deals with Campylobacter jejuni 10. Described as above. The format is cell-based. The settings on record: strain 10, blood-containing Mueller-Hinton agar, 48 h, 37° C. microaerobically, calculated for free base, read-out: minimum inhibitory concentration (MIC). The procedure:
as §1

Assay [2] relates to Campylobacter jejuni 19805. Described as above. In kind it is cell-based. Conditions: strain 19805, blood-containing Mueller-Hinton agar, 48 h, 37° C. microaerobically, calculated for free base, read-out: minimum inhibitory concentration (MIC). The procedure: as §1
The test system of assay [3] is Campylobacter jejuni A-19-3. The description is as above. The format is cell-based. Conditions: A193, strain A-19-3, blood-containing Mueller-Hinton agar, 48 h, 37° C. microaerobically, calculated for free base, read-out: minimum inhibitory concentration (MIC). The procedure: as §1
Assay [4] deals with Campylobacter jejuni A-24-2. Described as above. In kind it is cell-based. The settings on record: A242, strain A-24-2, blood-containing Mueller-Hinton agar, 48 h, 37° C. microaerobically, calculated for free base, read-out: minimum inhibitory concentration (MIC). The procedure:
as §1

Assay [5] concerns Campylobacter jejuni 19806. The assay is described as above. Conditions: strain 19806, blood-containing Mueller-Hinton agar, 48 h, 37° C. microaerobically, calculated for free base, read-out: minimum inhibitory concentration (MIC). In kind it is cell-based. The procedure: as §1
In another assay the test system is Campylobacter jejuni 12. Described as above. Conditions: strain 12, blood-containing Mueller-Hinton agar, 48 h, 37° C. microaerobically, calculated for free base, read-out: minimum inhibitory concentration (MIC). The format is cell-based. The procedure:
as §1

Assay [6] has as its system Campylobacter jejuni 19804. Described as above. The settings on record: strain 19804, blood-containing Mueller-Hinton agar, 48 h, 37° C. microaerobically, calculated for free base, read-out: minimum inhibitory concentration (MIC). In kind it is cell-based. The procedure: as §1
Assay [7] has as its system Campylobacter jejuni A-11-3. The description is as above. In kind it is cell-based. Conditions: A113, strain A-11-3, blood-containing Mueller-Hinton agar, 48 h, 37° C. microaerobically, calculated for free base, read-out: minimum inhibitory concentration (MIC). The procedure: as §1
The test system of the next assay is Campylobacter jejuni 170. The description is as above. The settings on record: strain 170, blood-containing Mueller-Hinton agar, 48 h, 37° C. microaerobically, calculated for free base, read-out: minimum inhibitory concentration (MIC). In kind it is cell-based. The procedure: as §1
Assay [8] deals with Campylobacter jejuni 10812. Described as above. In kind it is cell-based. The settings on record: strain 10812, blood-containing Mueller-Hinton agar, 48 h, 37° C. microaerobically, calculated for free base, read-out: minimum inhibitory concentration (MIC). The procedure: as §1
A further assay deals with Campylobacter jejuni 77. The description is as above. In kind it is cell-based. The settings on record: strain 77, blood-containing Mueller-Hinton agar, 48 h, 37° C. microaerobically, calculated for free base, read-out: minimum inhibitory concentration (MIC). The procedure: as §1
In assay [9] the test system is Streptococcus pneumoniae 1 Neufeld. The experiment in a line: In vivo efficacy against systemic infections in mice. Conditions: 336 h, oral, intraperitoneal infection 3×10^3 cells, four times, immediately, 6, 24 and 30 h after infection, 14 days, calculated for free base, read-out: median effective dose (ED50). Further details: species or system Streptococcus pneumoniae; male mice (ddY-S). The procedure:
(§2) Compounds were each dissolved in deionized water. Each of the solutions was orally administered to mice infected with each of the test organisms under the conditions shown hereinbelow, and the median effective dose (ED50) was calculated by probit analysis. The numerals in the table show ED50 (mg/kg) value, calculated for free base.
(§3) Mice: Male mice (ddY-S) weighing about 20 g
Streptococcus pneumoniae 1 Neufeld
Intraperitoneal infection with 3×10^3 cells per mouse suspended in brain heart infusion broth.
(§4) Four times, immediately, 6, 24 and 30 hours after infection in case of Streptococcus pneumoniae 1 Neufeld. Twice, immediately and 6 hours after infection in case of other organisms.
(§5) For 14 days in case of Staphylococcus aureus 50774 and Streptocuccus pneumoniae 1 Neufeld. For 7 days in case of other organisms.

The test system of assay [10] is Pseudomonas aeruginosa 12. The assay is described as above. More on the design: species or system Pseudomonas aeruginosa; male mice (ddY-S). The settings on record: Pseudomonas aeruginosa, 12, 168 h, oral, intraperitoneal infection about 5×10^3 cells, 4% mucin, twice, immediately and 6 h after infection, 7 days, calculated for free base, read-out: median effective dose (ED50). The procedure: as §2, §3
Pseudomonas aeruginosa 12
Intraperitoneal infection with about 5×10^3 cells per mouse suspended in tryptosoy broth with 4% mucin.
as §4, §5

In another assay the test system is M. hyorhinis BST-7. In words: Anti-Mycoplasma activity, twofold agar-dilution method. In kind it is cell-based. The settings on record: Mesomycoplasma hyorhinis, BST7, 72 h, Chanock agar, 37° C., 3 days aerobically, calculated for free base, read-out: minimum inhibitory concentration (MIC). The procedure:
(§6) The numbers in the table show minimum inhibitory concentrations (MIC) (μg/ml), calculated for free base. The minimum inhibitory concentration was determined by the twofold agar-dilution method using Chanock agar. Three μl of a culture of test organisms in Chanock broth was inoculated onto 10-ml drug-containing agar layers in petri dishes. Growth of Mycoplasma was observed after incubation at 37° C. under the conditions shown hereinbelow. The MIC was defined as the lowest drug concentration which prevented growth of Mycoplasma microscopically.

The test system of another assay is M. orale CH-19299. The assay is described as above. The format is cell-based. Conditions: 48 h, Chanock agar, 37° C., 2 days anaerobically, calculated for free base, read-out: minimum inhibitory concentration (MIC). The procedure: as §6
Another assay concerns M. salivarium. Described as above. Conditions: 48 h, read-out: minimum inhibitory concentration (MIC). In kind it is cell-based. The procedure: as §6
In assay [11] the test system is Streptococcus pyogenes A65. In words: In vivo efficacy against systemic infections in mice. Conditions: A65, 168 h, oral, intraperitoneal infection 3×10^7 cells, twice, immediately and 6 h after infection, 7 days, calculated for free base, read-out: median effective dose (ED50). More on the design: species or system Streptococcus pyogenes; male mice (ddY-S). The procedure: as §2, §3
Streptococcus pyogenes A65
Intraperitoneal infection with 3×10^7 cells per mouse suspended in brain heart infusion broth.
as §4, §5

Consider `CC1CN(c2c(F)c(N)c3c(=O)c(C(=O)O)cn(C4CC4)c3c2F)CCN1` (stereo not shown) [Compound 1, 5-Amino-1-cyclopropyl-6,8-difluoro-7-(3-methyl-1-piperazinyl)-1,4-dihydro-4-oxoquinoline-3-carboxylic acid], for which the MIC in assay [1] was 0.0125 µg/mL (≈ 0.033 µM); with Campylobacter jejuni 20 it was 6.3 ng/mL (≈ 0.0166 µM); in the assay with Campylobacter jejuni 10, 0.0125 µg/mL (≈ 0.033 µM); in assay [2], 0.0125 µg/mL (≈ 0.033 µM); in [3], 0.05 µg/mL (≈ 0.132 µM); in [4] it was 0.05 µg/mL (≈ 0.132 µM). The MIC in assay [5] was 0.0125 µg/mL (≈ 0.033 µM); in the assay on Campylobacter jejuni 12, 0.0125 µg/mL (≈ 0.033 µM); in [6], 0.0125 µg/mL (≈ 0.033 µM); in assay [7], 0.05 µg/mL (≈ 0.132 µM); in the assay with Campylobacter jejuni 170, 0.0125 µg/mL (≈ 0.033 µM); in [8] it was 0.025 µg/mL (≈ 0.0661 µM). For the same compound, the MIC in the assay with Campylobacter jejuni 77 was 0.0125 µg/mL (≈ 0.033 µM); with M. hyorhinis BST-7, 0.2 µg/mL (≈ 0.529 µM); with M. orale CH-19299 it was 0.2 µg/mL (≈ 0.529 µM); in the assay with M. salivarium it was 0.2 µg/mL (≈ 0.529 µM). Also, the ED50 in assay [9] is 10.9 mg/kg; in [10] it was 1.11 mg/kg; in assay [11], 5.26 mg/kg.

In general, ED50 refers to the dose that gives a 50% effect, or the effect in half of the subjects.
